Measured values: publication PMC6990646 (ACS Omega, 2020)
≈ marks a conversion by molar mass, not a printed value. Where “and” joins values, the source holds several entries; their conditions need not be identical. Equal entries are not always repeated.

What was measured:
[1] = tested on: HSV-1; settings: for mean % of reduction, herpes simplex virus: nontoxic dose of compound; for IC50: herpes simplex virus, plaque reduction
[2] = tested on: FRHK-4 cell line; assay: Cytotoxicity test on FRHK-4 cell line; format: cell-based; settings: hepatitis A virus HM 175 columns; host cells FRHK4
[3] = tested on: HAdV7; assay: Plaque reduction assay against adenovirus 7; format: cell-based, human adenovirus type 7; settings: nontoxic dose of compound
[4] = tested on: ED-43/SG-Feo (VYG) replicon of HCV genotype 4a; assay: Antiviral bioassay against ED-43/SG-Feo; format: cell-based; settings: for mean % of reduction, HCVcc genotype 4: nontoxic dose of compound
[5] = tested on: HAV HM175; assay: Plaque reduction assay against HAV HM175; format: cell-based, hepatitis A virus HM 175; settings: for IC50: hepatitis A virus HM 175, plaque reduction; for mean % of reduction, hepatitis A virus HM 175: nontoxic dose of compound
[6] = tested on: Huh 7.5 cell line; assay: Cytotoxicity test on Huh 7.5 cell line; format: cell-based; settings: HCVcc genotype 4 columns; host cells Huh 7.5
[7] = tested on: Vero cell line; assay: Cytotoxicity test on Vero cell line; format: cell-based; settings: herpes simplex virus table; host cells Vero
[8] = tested on: CBV4; assay: Plaque reduction assay against coxsackievirus B4; format: cell-based; settings: nontoxic dose of compound
[9] = tested on: ADV7; settings: cited from earlier work

SMILES | mean % of reduction, herpes simplex virus [1] | CC50 [2] | mean % of reduction, adenovirus type 7 [3] | mean % of reduction, HCVcc genotype 4 [4] | IC50 [5] | mean % of reduction, hepatitis A virus HM 175 [5] | IC50 [1] | CC50 [6] | CC50 [7] | IC50 ([4]; HCVcc genotype 4) | mean % of reduction, coxsackievirus B4 [8] | EC50 [9]
Nc1nc(NS(=O)(=O)c2ccccc2)ncc1-c1nc2ccccc2s1 [5a, N-(4-Amino-5-(Benzo[d]thiazol-2-yl)pyrimidin-2-yl)benzenesulfonamide] | 20 ± 0.9% | 220 µg/mL (≈ 574 µM) | 20 ± 0.5% | 30 ± 0.8% | 100 µg/mL (≈ 261 µM) |  |  |  |  |  |  | 
Cc1ccc(S(=O)(=O)Nc2ncc(-c3nc4ccccc4s3)c(N)n2)cc1 [5b, N-(4-Amino-5-(benzo[d]thiazol-2-yl)pyrimidin-2-yl)-4-methylbenzenesulfonamide] | 40 ± 1.4% |  | 20 ± 0.3% | 20 ± 0.8% |  | 40 ± 1.0% |  |  |  |  |  | 
O=C(CNc1nc(NS(=O)(=O)c2ccccc2)ncc1-c1nc2ccccc2s1)c1ccc(Cl)cc1 [9b, N-(5-(Benzo[d]thiazol-2-yl)-4-((2-(4-chlorophenyl)-2-oxoethyl)amino)pyrimidin-2-yl)benzenesulfonamide] | 70% and 70 ± 1.5% | 230 µg/mL (≈ 429 µM) | 40 ± 0.8% | 60 ± 1.2% | 86 µg/mL (≈ 160 µM) |  | 74 µg/mL (≈ 138 µM) | 250 µg/mL (≈ 466 µM) | 240 µg/mL (≈ 448 µM) | 86 µg/mL (≈ 160 µM) |  | 
Cc1ccc(C(=O)CNc2nc(NS(=O)(=O)c3ccccc3)ncc2-c2nc3ccccc3s2)cc1 [9c, N-(5-(Benzo[d]thiazol-2-yl)-4-((2-(p-tolyl)-2-oxoethyl)amino)pyrimidin-2-yl)benzenesulfonamide] | 30 ± 1.0% |  | 10 ± 0.2% | 10 ± 0.6% |  | 40 ± 1.2% |  |  |  |  |  | 
Cc1ccc(-c2nc(N)nc(N)c2-c2nc3ccccc3s2)cc1 [13b, 5-(Benzo[d]thiazol-2-yl)-6-p-tolylpyrimidine-2,4-diamine] | 10 ± 0.1% |  | 10 ± 0.1% | 10 ± 0.2% |  | 10 ± 0.1% |  |  |  |  | 10 ± 0.1% | 
COc1ccc(-c2nc(N)nc(N)c2-c2nc3ccccc3s2)cc1 [13c, 5-(Benzo[d]thiazol-2-yl)-6-(4-methoxyphenyl)pyrimidine-2,4-diamine] | 10 ± 0.3% |  | 10 ± 0.2% | 10 ± 0.1% |  | 10 ± 0.1% |  |  |  |  | 10 ± 0.2% | 
Nc1nc(NS(=O)(=O)c2ccccc2)nc(-c2ccccc2)c1-c1nc2ccccc2s1 [14a, N-(4-Amino-5-(benzo[d]thiazol-2-yl)-6-phenylpyrimidin-2-yl)benzenesulfonamide] | 10 ± 0.2% |  | 10 ± 0.2% | 10 ± 0.1% |  | 10 ± 0.1% |  |  |  |  | 10 ± 0.1% | 
Nc1nc(NS(=O)(=O)c2ccccc2)nc(-c2ccc(F)cc2)c1-c1nc2ccccc2s1 [14b, N-(4-Amino-5-(benzo[d]thiazol-2-yl)-6-(4-fluorophenyl)pyrimidin-2-yl)benzenesulfonamide] | 70 ± 1.3% | 220 µg/mL (≈ 461 µM) | 30 ± 0.5% | 10 ± 0.6% |  |  | 66 µg/mL (≈ 138 µM) |  | 250 µg/mL (≈ 524 µM) |  |  | 
Nc1nc(NS(=O)(=O)c2ccccc2)nc(-c2ccc(Cl)cc2)c1-c1nc2ccccc2s1 [14c, N-(4-Amino-5-(benzo[d]thiazol-2-yl)-6-(4-chlorophenyl)pyrimidin-2-yl)benzenesulfonamide] | 30 ± 0.8% | 230 µg/mL (≈ 466 µM) | 30 ± 0.6% | 30 ± 0.7% |  |  |  |  |  |  |  | 
Cc1ccc(-c2nc(NS(=O)(=O)c3ccccc3)nc(N)c2-c2nc3ccccc3s2)cc1 [14d, N-(4-Amino-5-(benzo[d]thiazol-2-yl)-6-p-tolylpyrimidin-2-yl)benzenesulfonamide] | 10 ± 0.1% |  | 10 ± 0.1% | 10 ± 0.1% |  | 20 ± 0.2% |  |  |  |  | 30 ± 0.2% | 
COc1ccc(-c2nc(NS(=O)(=O)c3ccccc3)nc(N)c2-c2nc3ccccc3s2)cc1 [14e, N-(4-Amino-5-(benzo[d]thiazol-2-yl)-6-(4-methoxyphenyl)pyrimidin-2-yl)benzenesulfonamide] | 16.7 ± 0.1% |  | 10 ± 0.1% | 10 ± 0.3% |  | 13.3 ± 0.2% |  |  |  |  | 20 ± 0.2% | 
Cc1ccc(S(=O)(=O)Nc2nc(N)c(-c3nc4ccccc4s3)c(-c3ccccc3)n2)cc1 [14f, N-(4-Amino-5-(benzo[d]thiazol-2-yl)-6-phenylpyrimidin-2-yl)-4-methylbenzenesulfonamide] | 10 ± 0.1% |  | 10 ± 0.2% | 10 ± 0.1% |  | 10 ± 0.1% |  |  |  |  | 10 ± 0.2% | 
Cc1ccc(S(=O)(=O)Nc2nc(N)c(-c3nc4ccccc4s3)c(-c3ccc(F)cc3)n2)cc1 [14g, N-(4-Amino-5-(benzo[d]thiazol-2-yl)-6-(4-fluorophenyl)pyrimidin-2-yl)-4-methylbenzenesulfonamide] | 80% and 80 ± 2.4% | 230 µg/mL (≈ 468 µM) | 40 ± 0.8% | 20 ± 0.7% | 81 µg/mL (≈ 165 µM) |  | 50 µg/mL (≈ 102 µM) |  | 240 µg/mL (≈ 488 µM) |  |  | 
Cc1ccc(S(=O)(=O)Nc2nc(N)c(-c3nc4ccccc4s3)c(-c3ccc(Cl)cc3)n2)cc1 [14h, N-(4-Amino-5-(benzo[d]thiazol-2-yl)-6-(4-chlorophenyl)pyrimidin-2-yl)-4-methylbenzenesulfonamide] | 70% and 70 ± 2.0% | 200 µg/mL (≈ 394 µM) | 40 ± 0.7% | 20 ± 0.5% | 74 µg/mL (≈ 146 µM) |  | 71 µg/mL (≈ 140 µM) |  | 230 µg/mL (≈ 453 µM) |  |  | 
Cc1ccc(-c2nc(NS(=O)(=O)c3ccc(C)cc3)nc(N)c2-c2nc3ccccc3s2)cc1 [14i, N-(4-Amino-5-(benzo[d]thiazol-2-yl)-6-p-tolylpyrimidin-2-yl)-4-methylbenzenesulfonamide] | 10 ± 0.1% |  | 10 ± 0.1% | 10 ± 0.2% |  | 10 ± 0.2% |  |  |  |  | 10 ± 0.1% | 
COc1ccc(-c2nc(NS(=O)(=O)c3ccc(C)cc3)nc(N)c2-c2nc3ccccc3s2)cc1 [14j, N-(4-Amino-5-(benzo[d]thiazol-2-yl)-6-(4-methoxyphenyl)pyrimidin-2-yl)-4-methylbenzenesulfonamide] | 10 ± 0.1% |  | 10 ± 0.1% | 10 ± 0.3% |  | 10 ± 0.1% |  |  |  |  | 10 ± 0.1% | 
CSc1nc(NS(=O)(=O)c2ccccc2)nc(N)c1-c1nc2ccccc2s1 [17a, N-(4-Amino-5-(benzo[d]thiazol-2-yl)-6-(methylthio)pyrimidin-2-yl)benzenesulfonamide] | 10 ± 0.3% |  | 10 ± 0.2% | 10 ± 0.1% |  | 10 ± 0.2% |  |  |  |  | 10 ± 0.1% | 
CSc1nc(NS(=O)(=O)c2ccc(C)cc2)nc(N)c1-c1nc2ccccc2s1 [17b, N-(4-Amino-5-(benzo[d]thiazol-2-yl)-6-(methylthio)pyrimidin-2-yl)-4-methylbenzenesulfonamide] | 10 ± 0.2% |  | 10 ± 0.1% | 10 ± 0.1% |  | 10 ± 0.1% |  |  |  |  | 20 ± 0.2% | 
Nc1nc2c(ncn2COCCO)c(=O)[nH]1 [acyclovir, Acyclovir, reference compound] |  |  |  |  |  |  |  |  | 28 µg/mL (≈ 124 µM) |  |  | 
CC(=O)CNc1nc(NS(=O)(=O)c2ccccc2)ncc1-c1nc2ccccc2s1 [compound 7, N-(5-(Benzo[d]thiazol-2-yl)-4-((2-oxopropyl)amino)pyrimidin-2-yl)benzenesulfonamide] | 10 ± 0.5% |  | 10 ± 0.2% | 10 ± 0.3% |  | 10 ± 0.2% |  |  |  |  | 13.3 ± 0.4% | 
NC(=O)c1ncn([C@@H]2O[C@H](CO)[C@@H](O)[C@H]2O)n1 [ribavirin] |  |  |  |  |  |  |  |  |  |  |  | 27.8 µg/mL (≈ 114 µM)
